From ChEMBL document CHEMBL1145662, “Catharanthus alkaloids, XXXVIII. Confirming structural evidence and antineoplastic activity of the bisindole alkaloids leurosine-N'b-oxide (pleurosine), roseadine and vindolicine from Catharanthus roseus” (J Nat Prod, 1983)

Columns and labels:
L1210 [1] = assay: Antitumor activity against mouse L1210 cells xenografted in CD2F1 mouse at 10 mg/kg for 1 to 9 days relative to control; assay type: functional
CX-1 [2] = assay: Antitumor activity against human CX-1 cells xenografted in Swiss nu/nu athymic mouse at 20 mg/kg on 4th,8th,12th and 16th day relative to control; assay type: functional
B16 [3] = assay: Antitumor activity against mouse B16 cells xenografted in B6C3F1 mouse at 5 mg/kg for 1 to 9 days relative to control; assay type: functional
MC-38 [4] = assay: Antitumor activity against mouse Colon 38 cells xenografted in Swiss mouse at 5 mg/kg for 1 to 2 days relative to control; assay type: functional
P388 [5] = assay: Antitumor activity against mouse P388 cells xenografted in CD2F1 mouse at 12.5 mg/kg on 3rd, 6th and 9th day relative to control; assay type: functional
CX-1 [6] = assay: Antitumor activity against human CX-1 cells xenografted in Swiss nu/nu athymic mouse at 80 mg/kg on 4th,8th,12th and 16th day relative to control; assay type: functional
P388 [7] = assay: Antitumor activity against mouse P388 cells xenografted in CD2F1 mouse at 25 mg/kg on 3rd, 6th and 9th day relative to control; assay type: functional
L1210 [8] = assay: Antitumor activity against mouse L1210 cells xenografted in CD2F1 mouse at 5 mg/kg for 1 to 9 days relative to control; assay type: functional
P388 [9] = assay: Antitumor activity against mouse P388 cells xenografted in CD2F1 mouse at 16 mg/kg after 1 day relative to control; assay type: functional
L1210 [10] = assay: Antitumor activity against mouse L1210 cells xenografted in CD2F1 mouse at 20 mg/kg for 1 to 9 days relative to control; assay type: functional
Mus musculus = assay: Toxicity in mouse P388 cells xenografted in CD2F1 mouse at 20 mg/kg; assay type: organism-based; parameters: dose 20 mg/kg; details: in vivo
P388 [11] = assay: Antitumor activity against mouse P388 cells xenografted in CD2F1 mouse at 6.25 mg/kg for 1 to 9 days relative to control; assay type: functional
MC-38 [12] = assay: Antitumor activity against mouse Colon 38 cells xenografted in Swiss mouse at 20 mg/kg for 1 to 2 days relative to control; assay type: functional
P388 [13] = assay: Antitumor activity against mouse P388 cells xenografted in CD2F1 mouse at 12.5 mg/kg for 1 to 9 days relative to control; assay type: functional
P388 [14] = assay: Antitumor activity against mouse P388 cells xenografted in CD2F1 mouse at 6.25 mg/kg on 3rd, 6th and 9th day relative to control; assay type: functional
P388 [15] = assay: Antitumor activity against mouse P388 cells xenografted in CD2F1 mouse at 32 mg/kg after 1 day relative to control; assay type: functional
MC-38 [16] = assay: Antitumor activity against mouse Colon 38 cells xenografted in Swiss mouse at 10 mg/kg for 1 to 2 days relative to control; assay type: functional
B16 [17] = assay: Antitumor activity against mouse B16 cells xenografted in B6C3F1 mouse at 2.5 mg/kg for 1 to 9 days relative to control; assay type: functional
P388 [18] = assay: Antitumor activity against mouse P388 cells xenografted in CD2F1 mouse at 4 mg/kg after 1 day relative to control; assay type: functional
CX-1 [19] = assay: Antitumor activity against human CX-1 cells xenografted in Swiss nu/nu athymic mouse at 40 mg/kg on 4th,8th,12th and 16th day relative to control; assay type: functional
B16 [20] = assay: Antitumor activity against mouse B16 cells xenografted in B6C3F1 mouse at 10 mg/kg for 1 to 9 days relative to control; assay type: functional
P388 [21] = assay: Antitumor activity against mouse P388 cells xenografted in CD2F1 mouse at 8 mg/kg after 1 day relative to control; assay type: functional
CX-1 [22] = assay: Antitumor activity against human CX-1 cells xenografted in Swiss nu/nu athymic mouse at 160 mg/kg on 4th,8th,12th and 16th day relative to control; assay type: functional
P388 [23] = assay: Antitumor activity against mouse P388 cells xenografted in CD2F1 mouse at 25 mg/kg for 1 to 9 days relative to control; assay type: functional
P388 [24] = assay: Antitumor activity against mouse P388 cells xenografted in CD2F1 mouse at 2 mg/kg relative to control; assay type: functional
P388 [25] = assay: Antitumor activity against mouse P388 cells xenografted in CD2F1 mouse at 1 mg/kg relative to control; assay type: functional
B16 [26] = assay: Antitumor activity against mouse B16 cells xenografted in B6C3F1 mouse at 0.5 mg/kg relative to control; assay type: functional

CC[C@@]12C[N+]3([O-])CCc4c([nH]c5ccccc45)[C@@](C(=O)OC)(c4cc5c(cc4OC)N(C)[C@H]4[C@@](O)(C(=O)OC)[C@H](OC(C)=O)[C@]6(CC)C=CCN7CC[C@]54[C@@H]76)C[C@@H](C[C@@H]1O2)C3
T/C (L1210 [1]): 133%
T/C (CX-1 [2]): 81%
T/C (B16 [3]): 261%
T/C (MC-38 [4]): 84%
T/C (P388 [5]): 177%
T/C (CX-1 [6]): 85%
T/C (P388 [7]): 181%
T/C (L1210 [8]): 101%
T/C (P388 [9]): 193%
T/C (L1210 [10]): 112%
Activity (Mus musculus): Toxic
T/C (P388 [11]): 154%
T/C (MC-38 [12]): 82%
T/C (P388 [13]): 163%
T/C (P388 [14]): 168%
T/C (P388 [15]): 140%
T/C (MC-38 [16]): 108%
T/C (B16 [17]): 189%
T/C (P388 [18]): 142%
T/C (CX-1 [19]): 60%
T/C (B16 [20]): 309%
T/C (P388 [21]): 161%
T/C (CX-1 [22]): 71%
T/C (P388 [23]): 181%

CC[C@]1(O)CN2CCc3c([nH]c4ccccc34)[C@@H]1[C@@H](/C=C(\C(=O)OC)c1cc3c(cc1OC)N(C)C1[C@]34CCN3CC=C[C@](CC)(C34)[C@@H](OC(C)=O)[C@]1(O)C(=O)OC)C2 (some centres not stated) [ROSEADINE]
T/C (P388 [24]): 176%

CC[C@@H]1C[C@H]2CN(CCc3c([nH]c4ccccc34)[C@@](C(=O)OC)(c3cc4c(cc3OC)N(C)[C@H]3[C@@](O)(C(=O)OC)[C@H](OC(C)=O)[C@]5(CC)C=CCN6CC[C@]43[C@@H]65)C2)C1 [ROSEAMINE]
T/C (P388 [25]): 161%

CC[C@]1(O)C[C@@H]2CN(CCc3c([nH]c4ccccc34)[C@@](C(=O)OC)(c3cc4c(cc3OC)N(C)[C@H]3[C@@](O)(C(=O)OC)[C@H](OC(C)=O)[C@]5(CC)C=CCN6CC[C@]43[C@@H]65)C2)C1 [VINBLASTINE]
T/C (B16 [26]): 309%
